This note sets out measurements from patent publication US7259159B2, “Guanidino derivatives as inhibitors of cell adhesion” (Sanofi-Aventis Deutschland GmbH, priority 2000, dated 2007).

The target of one test is T1, human vitronectin receptor αvβ3 (Homo sapiens, UniProt P05106+P06756).
T1 construct: Human vitronectin receptor was obtained from the human placenta according to the method of Pytela et al; from tissue; host or cells: human placenta
T1 sequence (P06756 31-889 limits assumed): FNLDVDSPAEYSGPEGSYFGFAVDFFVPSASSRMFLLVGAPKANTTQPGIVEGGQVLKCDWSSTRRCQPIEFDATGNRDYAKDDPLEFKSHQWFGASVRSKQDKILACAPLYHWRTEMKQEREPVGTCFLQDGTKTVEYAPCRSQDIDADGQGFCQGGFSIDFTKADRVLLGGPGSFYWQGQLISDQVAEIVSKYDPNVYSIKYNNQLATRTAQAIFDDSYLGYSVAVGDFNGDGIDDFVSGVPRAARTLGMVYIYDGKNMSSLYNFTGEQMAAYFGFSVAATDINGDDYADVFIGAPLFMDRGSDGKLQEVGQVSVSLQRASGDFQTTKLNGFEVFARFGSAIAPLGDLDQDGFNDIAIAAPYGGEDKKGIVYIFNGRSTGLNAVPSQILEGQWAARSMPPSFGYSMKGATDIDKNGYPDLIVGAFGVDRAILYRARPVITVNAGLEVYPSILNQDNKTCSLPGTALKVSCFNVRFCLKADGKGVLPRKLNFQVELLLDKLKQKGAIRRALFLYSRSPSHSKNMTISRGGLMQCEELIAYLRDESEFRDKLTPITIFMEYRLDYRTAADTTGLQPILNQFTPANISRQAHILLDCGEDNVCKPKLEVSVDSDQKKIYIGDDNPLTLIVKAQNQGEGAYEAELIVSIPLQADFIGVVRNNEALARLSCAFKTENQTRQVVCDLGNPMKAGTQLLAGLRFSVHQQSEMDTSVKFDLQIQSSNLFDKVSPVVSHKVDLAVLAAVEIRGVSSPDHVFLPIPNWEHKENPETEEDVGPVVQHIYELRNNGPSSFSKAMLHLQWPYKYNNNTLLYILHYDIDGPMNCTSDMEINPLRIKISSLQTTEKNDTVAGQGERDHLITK
T1 sequence (P06756 891-1048 partner limits assumed): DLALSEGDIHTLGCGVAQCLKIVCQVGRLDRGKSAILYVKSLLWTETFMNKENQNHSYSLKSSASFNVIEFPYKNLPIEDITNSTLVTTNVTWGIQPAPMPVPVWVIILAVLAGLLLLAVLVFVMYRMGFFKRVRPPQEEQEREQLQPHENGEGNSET
T1 sequence (P05106 27-788): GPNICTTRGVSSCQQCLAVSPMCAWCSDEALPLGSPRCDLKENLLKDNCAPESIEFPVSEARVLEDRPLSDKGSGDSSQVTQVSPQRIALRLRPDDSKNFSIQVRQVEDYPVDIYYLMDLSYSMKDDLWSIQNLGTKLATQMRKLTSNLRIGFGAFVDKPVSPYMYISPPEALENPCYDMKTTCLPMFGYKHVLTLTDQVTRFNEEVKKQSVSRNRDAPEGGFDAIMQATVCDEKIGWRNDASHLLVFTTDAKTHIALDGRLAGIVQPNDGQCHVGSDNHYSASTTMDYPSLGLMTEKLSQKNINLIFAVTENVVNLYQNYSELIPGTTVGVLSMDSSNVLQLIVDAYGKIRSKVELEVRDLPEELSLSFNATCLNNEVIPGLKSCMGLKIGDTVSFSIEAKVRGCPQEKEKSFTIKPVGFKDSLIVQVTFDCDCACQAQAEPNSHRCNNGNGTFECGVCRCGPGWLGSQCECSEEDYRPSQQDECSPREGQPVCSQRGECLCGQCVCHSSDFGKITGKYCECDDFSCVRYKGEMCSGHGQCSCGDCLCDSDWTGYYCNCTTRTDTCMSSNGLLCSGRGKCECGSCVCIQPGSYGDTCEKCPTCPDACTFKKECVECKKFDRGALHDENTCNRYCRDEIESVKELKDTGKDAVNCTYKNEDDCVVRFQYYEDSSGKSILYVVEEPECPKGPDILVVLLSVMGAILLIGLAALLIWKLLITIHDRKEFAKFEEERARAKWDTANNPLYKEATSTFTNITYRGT
Put plainly: Kistrin binding assay (αvβ3 ELISA test, K/VnR).
Conditions: not given
The source says:
The inhibition of the binding of kistrin to human vitronectin receptor (VnR) described below is a test method by which the antagonistic action of the compounds of the invention on the vitronectin receptor αvβ3 can be determined (αvβ3 ELISA Test; the test method is abbreviated as “K/VnR” in the listing of the test results).
Kistrin was purified according to the methods of Dennis et al., as described in Proc. Natl. Acad. Sci. USA 87 (1989) 2471 and Proteins: Structure, Function and Genetics 15 (1993)312.
Purification of Human vitronectin Receptor (αvβ3)
Human vitronectin receptor was obtained from the human placenta according to the method of Pytela et al., Methods Enzymol. 144 (1987) 475. Human vitronectin receptor αvβ3 can also be obtained from some cell lines (for example from 293 cells, a human embryonic kidney cell line) which are co-transfected with DNA sequences for both subunits αv and β3 of the vitronectin receptor. The subunits are extracted with octyl glycoside and then chromatographed through concanavalin A, heparin-Sepharose and S-300.
Murine monoclonal antibodies which are specific for the β3 subunits of the vitronectin receptor, were prepared according to the method of Newman et al., Blood, 1985, 227, or by a similar process. The rabbit Fab 2 anti-mouse Fc conjugate to horseradish peroxidase (anti-mouse Fc HRP) was obtained from Pel Freeze (Catalog No. 715 305-1).
The ability of substances to inhibit the binding of kistrin to the vitronectin receptor can be determined using an ELISA test. For this purpose, Nunc 96-well microtiter plates were coated with a solution of kistrin (0.002 mg/ml) according to the method of Dennis et al., as described in Proteins: Structure, Function and Genetics 15 (1993) 312. The plates were then washed twice with PBS/0.05% Tween-20 and blocked by incubating (60 min) with bovine serum albumin (BSA, 0.5%, RIA grade or better) in buffer solution (Tris-HCl (50 mM), NaCl (100 mM), MgCl2 (1 mM), CaCl2 (1 mM), MnCl2 (1 mM), pH 7). Solutions of known inhibitors and of the test substances were prepared in concentrations from 2×10^−12 to 2×10^−6 mol/l in assay buffer (BSA (0.5%, RIA grade or better); Tris-HCl (50 mM), NaCl (100 mM), MgCl2 (1 mM), CaCl2 (1 mM), MnCl2 (1 mM), pH 7). The blocked plates were emptied, and in each case 0.025 ml of this solution which contains a defined concentration (2×10^−12 to 2×10^−6 mol/l) either of a known inhibitor or of a test substance, were added to each well. 0.025 ml of a solution of the vitronectin receptor in assay buffer (0.03 mg/ml) was pipetted into each well of the plate and the plate was incubated at room temperature for 60-180 min on a shaker. In the meantime, a solution (6 ml/plate) of a murine monoclonal antibody specific for the […] of the vitronectin receptor was prepared in assay buffer (0.0015 mg/ml). A second rabbit antibody (0.001 ml of stock solution/6 ml of the murine monoclonal anti-β3 antibody solution) which is an anti-mouse Fc HRP antibody conjugate was added to this solution, and this mixture of murine anti-β3 antibody and rabbit anti-mouse Fc HRP antibody conjugate was incubated during the time of the receptor-inhibitor incubation. The test plates were washed four times with PBS solution which contains 0.05% Tween-20, and in each case 0.05 ml/well of the antibody mixture was pipefted into each well of the plate and incubated for 60-180 min. The plate was washed four times with PBS/0.05% Tween-20 and then developed with 0.05 ml/well of a PBS solution which contained 0.67 mg/ml of ophenylenediamine and 0.012% of H2O2. Alternatively to this, o-phenylenediamine can be employed in a buffer (pH 5) which contains Na3PO4 and citric acid. The color development was stopped using 1 N H2SO4 (0.05 ml/well). The absorption for each well was measured at 492-405 nm and the data are evaluated by standard methods.
Take `Cc1nc(NC[C@H](NS(=O)(=O)c2cccc3ccccc23)C(=O)O)c2ccn(CCCC(=O)NC3=NCCCN3)c2n1` [Example 3, (2S)-3-{2-Methyl-7-[3-(1,4,5,6-tetrahydro-pyrimidin-2-ylcarbamoyl)-propyl]-7H-pyrrolo[2,3-d]pyrimidin-4-ylamino}-2-(naphthalene-1-sulfonylamino)-propionic acid]: the IC50 was determined as 2.2 nM.

Still in this test, the particulars now being: inhibition of the binding of kistrin to human vitronectin receptor (VnR), ELISA; read-out: K/VnR IC50.
`O=C(CCCn1cnc2c(NC[C@H](NC(=O)OCc3ccccc3)C(=O)O)ncnc21)NC1=NCCCN1` [Example 1, (2S)-2-Benzyloxycarbonylamino-3-{9-[3-(1,4,5,6-tetrahydro-pyrimidin-2-ylcarbamoyl)-propyl]-9H-purin-6-ylamino}-propionic acid]: the IC50 was determined as 22 nM. Same read-out and setting: in the case of `Cc1nc(NC[C@H](NC(=O)OCc2ccccc2)C(=O)O)c2ccn(CCCC(=O)NC3=NCCCN3)c2n1` [Example 2, (2S)-2-Benzyloxycarbonylamino-3-{2-methyl-7-[3-(1,4,5,6-tetrahydro-pyrimidin-2-ylcarbamoyl)-propyl]-7H-pyrrolo[2,3-d]pyrimidin-4-ylamino}-propionic acid] it was 3.5 nM; in that of `Cc1nc(NC[C@H](NS(=O)(=O)c2ccccc2)C(=O)O)c2ccn(CCCC(=O)NC3=NCCCN3)c2n1` [Example 4, (2S)-3-{2-Methyl-7-[3-(1,4,5,6-tetrahydro-pyrimidin-2-ylcarbamoyl)-propyl]-7H-pyrrolo[2,3-d]pyrimidin-4-ylamino}-2-(benzenesulfonylamino)-propionic acid], 3 nM; in that of `Cc1nc(NC[C@H](NS(=O)(=O)c2ccc(Br)cc2)C(=O)O)c2ccn(CCCC(=O)NC3=NCCCN3)c2n1` [Example 5, (2S)-3-{2-Methyl-7-[3-(1,4,5,6-tetrahydro-pyrimidin-2-ylcarbamoyl)-propyl]-7H-pyrrolo[2,3-d]pyrimidin-4-ylamino}-2-(4-bromobenzenesulfonylamino)-propionic acid], 2.6 nM.

Regarding `Cc1nc(SC[C@H](NS(=O)(=O)c2ccc(Br)cc2)C(=O)O)c2ccn(CCCC(=O)NC3=NCCCN3)c2n1` [Example 6, (2R)-3-{2-Methyl-7-[3-(1,4,5,6-tetrahydro-pyrimidin-2-ylcarbamoyl)-propyl]-7H-pyrrolo[2,3-d]pyrimidin-4-ylsulfanyl}-2-(4-bromobenzenesulfonylamino)-propionic acid], the IC50 came to 13.5 nM. In the case of `Cc1nc(SC[C@H](NS(=O)(=O)c2cccc3ccccc23)C(=O)O)c2ccn(CCCC(=O)NC3=NCCCN3)c2n1` [Example 7, (2R)-3-{2-Methyl-7-[3-(1,4,5,6-tetrahydro-pyrimidin-2-ylcarbamoyl)-propyl]-7H-pyrrolo[2,3-d]pyrimidin-4-ylsulfanyl}-2-(naphthalene-1-sulfonylamino)-propionic acid], the IC50 is 5 nM. Still for that read-out and setting: then `Cc1nc(SC[C@H](NS(=O)(=O)c2ccccc2)C(=O)O)c2ccn(CCCC(=O)NC3=NCCCN3)c2n1` [Example 8, (2R)-3-{2-Methyl-7-[3-(1,4,5,6-tetrahydro-pyrimidin-2-ylcarbamoyl)-propyl]-7H-pyrrolo[2,3-d]pyrimidin-4-ylsulfanyl}-2-(benzenesulfonylamino)-propionic acid], with 10 nM.
